Where “and” joins values, the source holds several entries; their conditions need not be identical. Equal entries are not always repeated. Where two headings read alike, the source gives them in different places. Non-standard residues stand in square brackets, D forms with d. Residues, ends and D or L forms follow the SMILES beside them. No end group written: not given here. *: point of attachment. Biotin = O=C1N[C@H]2[C@H](CS[C@H]2CCCCC(=O)*)N1; PEG4 = NCCOCCOCCOCCOCCC(=O)O; Nle = CCCC[C@H](N)C(=O)O; Aib = CC(C)(N)C(=O)O
Key:
[1] = biological target: SARS-CoV-2 Spike protein (Severe acute respiratory syndrome coronavirus 2, UniProt P0DTC2); experiment: Ternary binding of SARS-CoV-2 Spike protein (293T cells expressing Spike-GFP, IgG-AF647, flow cytometry); assay type: cell-based; details: IgG-AF647 10 μg/ml, repeat values/batches listed separately
[2] = biological target: T1, SARS-CoV-2 Spike Glycoprotein RBD protein (Severe acute respiratory syndrome coronavirus 2, UniProt P0DTC2); experiment: Binding of biotinylated ligands to SARS-CoV-2 Spike Glycoprotein RBD protein by ELISA
T1 construct: SARS-CoV-2 (COVID-19) S Protein RBD, His Tag; purchased Acro Biosystems SPD-C52H3
Procedure: Materials. The binding affinity of biotinylated ligands to SARS-CoV-2 Spike Glycoprotein RBD protein was determined by ELISA. The binding assay was performed using the following steps: (1) assay plates (PE B&W Isoplate 96-well Flat Bottom, High Bindi-g - Perkin Elmer 6005580) were coated with 100 ul Anti-6× His tag antibody (Anti-6× His tag Antibody; Abcam ab15149, Mouse Monoclonal; Cambridge, UK) at 5 μg/ml in PBS, incubate 1 hour at 37° C. without shaking. The plates were washed (each wash step of this assay includes four 1-minute washes with 200 ul phosphate-buffered saline-0.05% (w/v) Tween® 20 detergent (PBST)). (2) Plates were blocked with 200 ul PBST-5% BSA (PBSTB; American Bio AB01088-00100; Canton, MA), for an hour at room temperature on a plate shaker (400 rpm). The plates were washed. […] The plates were washed. (4) Ligands were added, 100 ul at a concentration range of 0.1 mM to 100 nM in PBSTB, and incubated for 1 hour at room temperature on a plate shaker (200 RPM). The plates were washed. (5) NeutrAvidin™-HRP (Invitrogen 31030; Waltham, MA) is added, 100 ul at a dilution of 1:20,000 in PBSTB, and incubated for 1 hour at room temperature on a plate shaker (200 RPM). The plates were washed. (6) SuperSignal ELISA Pico Chemiluminescent Substrate (Thermo Scientific 37069; Waltham, MA) was added and incubated for 5 minutes at room temperature on a plate shaker (200 RPM).

[3] = 293T cells expressing Spike-GFP, read-out: SARS-CoV-2 Ternary binding EC50
[4] = ELISA, biotinylated ligands, Spike RBD, read-out: ELISA SARS-CoV-2 Spike RBD Protein Binding EC50

Compound	EC50 [1, 3]	EC50 [2, 4]	EC50 ([1]; SARS-CoV-2 Ternary binding EC50, 293T cells expressing Spike-GFP)	EC50 [2]
CCCC[C@H](NC(=O)[C@H](CCC(=O)O)NC(=O)[C@H](CC(=O)O)NC(=O)[C@H](CC(C)C)NC(=O)[C@H](CC(C)C)NC(=O)[C@H](CCCNC(=N)N)NC(=O)[C@H](CCSC)NC(=O)[C@@H](NC(=O)[C@H](CCC(=O)O)NC(=O)[C@H](Cc1ccc(O)cc1)NC(=O)[C@@H](NC(=O)[C@H](CCCCN)NC(=O)[C@H](CCC(N)=O)NC(=O)[C@H](CC(C)C)NC(=O)[C@@H](NC(=O)[C@H](Cc1c[nH]c2ccccc12)NC(=O)[C@H](CCC(=O)O)NC(=O)[C@H](CCCCN)NC(=O)[C@H](CC(=O)O)NC(=O)CCOCCOCCOCCOCCNC(=O)CCCC[C@@H]1SC[C@@H]2NC(=O)N[C@@H]21)[C@@H](C)CC)[C@@H](C)CC)[C@@H](C)CC)C(=O)N[C@H](Cc1c[nH]cn1)C(=O)N[C@@H](Cc1c[nH]cn1)C(=O)N[C@@H](C)C(=O)N[C@@H](CCC(=O)O)C(=O)N[C@@H](C)C(=O)N[C@@H](CO)C(=O)N[C@@H](CCSC)C(=O)N[C@@H](CCCNC(=N)N)C(=O)N[C@H](C(=O)N[C@@H](CO)C(=O)N[C@@H](CC(=O)O)C(=O)N[C@@H](CC(C)C)C(=O)N[C@H](C(=O)N[C@@H](Cc1ccc(O)cc1)C(=O)N[C@@H](CCC(=O)O)C(=O)N[C@@H](Cc1ccccc1)C(=O)N[C@@H](CCSC)C(=O)N[C@@H](CCCCN)C(=O)N[C@@H](CCCCN)C(=O)NCC(=O)O)[C@@H](C)CC)C(C)C [Compound 222]	0.02 nM	0.79 nM	–	–
CC[C@H](C)[C@H](NC(=O)[C@H](CC(C)C)NC(=O)[C@H](CC(=O)O)NC(=O)[C@H](CO)NC(=O)[C@@H](NC(=O)[C@H](CCCNC(=N)N)NC(=O)[C@H](CCSC)NC(=O)[C@H](CO)NC(=O)[C@H](C)NC(=O)[C@@H]1CCCN1C(=O)[C@H](C)NC(=O)[C@H](Cc1c[nH]cn1)NC(=O)CNC(=O)[C@H](CC(C)C)NC(=O)[C@H](CCC(=O)O)NC(=O)[C@H](CC(=O)O)NC(=O)[C@H](CC(C)C)NC(=O)[C@H](CC(C)C)NC(=O)[C@H](CCCNC(=N)N)NC(=O)[C@H](CCSC)NC(=O)[C@@H](NC(=O)[C@H](CCC(=O)O)NC(=O)[C@H](Cc1ccc(O)cc1)NC(=O)[C@@H](NC(=O)[C@H](CCCCN)NC(=O)[C@H](CCC(N)=O)NC(=O)[C@H](CC(C)C)NC(=O)[C@@H](NC(=O)[C@H](Cc1c[nH]c2ccccc12)NC(=O)[C@H](CCC(=O)O)NC(=O)[C@H](CCCCN)NC(=O)[C@H](CC(=O)O)NC(=O)[C@H](CO)NC(=O)CCOCCOCCOCCOCCNC(=O)CCCC[C@@H]1SC[C@@H]2NC(=O)N[C@@H]21)[C@@H](C)CC)[C@@H](C)CC)[C@@H](C)CC)C(C)C)C(=O)N[C@@H](Cc1ccc(O)cc1)C(=O)N[C@@H](CCC(=O)O)C(=O)N[C@@H](Cc1ccccc1)C(=O)N[C@@H](CCSC)C(=O)N[C@@H](CCCCN)C(=O)N[C@@H](CCCCN)C(=O)NCC(N)=O [Compound 193] ({Biotin-PEG4}-SDKEWILQKIYEIMRLLDELGHAPASMRVSDLIYEFMKKG-NH2)	2.3 nM and 0.24 nM	4.6 nM	–	–
{Biotin-PEG4}-[Aib]SDKEWILQKIYEI[Nle]RLLDELGHAEAS[Nle]RVSDLIY[Aib]FMK[Aib]G [Compound 220]	–	2.55 nM	–	–
CC[C@H](C)[C@H](NC(=O)[C@H](CC(C)C)NC(=O)[C@H](CC(=O)O)NC(=O)[C@H](CO)NC(=O)[C@@H](NC(=O)[C@H](CCCNC(=N)N)NC(=O)[C@H](CCSC)NC(=O)[C@H](CO)NC(=O)[C@H](C)NC(=O)[C@H](CCC(=O)O)NC(=O)[C@H](C)NC(=O)[C@H](Cc1c[nH]cn1)NC(=O)CNC(=O)[C@H](CC(C)C)NC(=O)[C@H](CCC(=O)O)NC(=O)[C@H](CC(=O)O)NC(=O)[C@H](CC(C)C)NC(=O)[C@H](CC(C)C)NC(=O)[C@H](CCCNC(=N)N)NC(=O)[C@H](CCSC)NC(=O)[C@@H](NC(=O)[C@H](CCC(=O)O)NC(=O)[C@H](Cc1ccc(O)cc1)NC(=O)[C@@H](NC(=O)[C@H](CCCCN)NC(=O)[C@H](CCC(N)=O)NC(=O)[C@H](CC(C)C)NC(=O)[C@@H](NC(=O)[C@H](Cc1c[nH]c2ccccc12)NC(=O)[C@H](CCC(=O)O)NC(=O)[C@H](CCCCN)NC(=O)[C@H](CC(=O)O)NC(=O)[C@H](CO)NC(=O)C(C)(C)NC(=O)CCOCCOCCOCCOCCNC(=O)CCCC[C@@H]1SC[C@@H]2NC(=O)N[C@@H]21)[C@@H](C)CC)[C@@H](C)CC)[C@@H](C)CC)C(C)C)C(=O)N[C@@H](Cc1ccc(O)cc1)C(=O)N[C@@H](CCC(=O)O)C(=O)N[C@@H](Cc1ccccc1)C(=O)N[C@@H](CCSC)C(=O)N[C@@H](CCCCN)C(=O)N[C@@H](CCCCN)C(=O)N[C@H](C)C(=O)O [Compound 214]	–	0.78 nM	–	–
{Biotin-PEG4}-[Aib]SDKEWILQKIYEIMRLLDELGHAEAS[Nle]RVSDLIY[Aib]FMK[Aib]G [Compound 218]	0.1 nM	2.38 nM	–	–
CC[C@H](C)[C@H](NC(=O)[C@H](CC(C)C)NC(=O)[C@H](CC(=O)O)NC(=O)[C@H](CO)NC(=O)[C@@H](NC(=O)[C@H](CCCNC(=N)N)NC(=O)[C@H](CCSC)NC(=O)[C@H](CO)NC(=O)[C@H](C)NC(=O)[C@H](CCC(=O)O)NC(=O)[C@H](C)NC(=O)[C@H](Cc1c[nH]cn1)NC(=O)CNC(=O)[C@H](CC(C)C)NC(=O)[C@H](CCC(=O)O)NC(=O)[C@H](CC(=O)O)NC(=O)[C@H](CC(C)C)NC(=O)[C@H](CC(C)C)NC(=O)[C@H](CCCNC(=N)N)NC(=O)[C@H](CCSC)NC(=O)[C@@H](NC(=O)[C@H](CCC(=O)O)NC(=O)[C@H](Cc1ccc(O)cc1)NC(=O)[C@@H](NC(=O)[C@H](CCCCN)NC(=O)[C@H](CCC(N)=O)NC(=O)[C@H](CC(C)C)NC(=O)[C@@H](NC(=O)[C@H](Cc1c[nH]c2ccccc12)NC(=O)[C@H](CCC(=O)O)NC(=O)[C@H](CCCCN)NC(=O)[C@H](CC(=O)O)NC(=O)[C@H](CO)NC(=O)C(C)(C)NC(=O)CCOCCOCCOCCOCCNC(=O)CCCC[C@@H]1SC[C@@H]2NC(=O)N[C@@H]21)[C@@H](C)CC)[C@@H](C)CC)[C@@H](C)CC)C(C)C)C(=O)N[C@@H](Cc1ccc(O)cc1)C(=O)N[C@@H](CCC(=O)O)C(=O)N[C@@H](Cc1ccccc1)C(=O)N[C@@H](CCSC)C(=O)N[C@@H](CCCCN)C(=O)N[C@@H](CCCCN)C(=O)N[C@H](Cc1ccccc1)C(=O)O [Compound 216]	0.46 nM	1.11 nM	–	–
CC[C@H](C)[C@H](NC(=O)[C@H](CC(C)C)NC(=O)[C@H](CC(=O)O)NC(=O)[C@H](CO)NC(=O)[C@@H](NC(=O)[C@H](CCCNC(=N)N)NC(=O)[C@H](CCSC)NC(=O)[C@H](CO)NC(=O)[C@H](C)NC(=O)[C@@H]1CCCN1C(=O)[C@H](C)NC(=O)[C@H](Cc1c[nH]cn1)NC(=O)CNC(=O)[C@H](CC(C)C)NC(=O)[C@H](CCC(=O)O)NC(=O)[C@H](CC(=O)O)NC(=O)[C@H](CC(C)C)NC(=O)[C@H](CC(C)C)NC(=O)[C@H](CCCNC(=N)N)NC(=O)[C@H](CCSC)NC(=O)[C@@H](NC(=O)[C@H](CCC(=O)O)NC(=O)[C@H](Cc1ccc(O)cc1)NC(=O)[C@@H](NC(=O)[C@H](CCCCN)NC(=O)[C@H](CCC(N)=O)NC(=O)[C@H](CC(C)C)NC(=O)[C@@H](NC(=O)[C@H](Cc1c[nH]c2ccccc12)NC(=O)[C@H](CCC(=O)O)NC(=O)[C@H](CCCCN)NC(=O)[C@H](CC(=O)O)NC(=O)CCOCCOCCOCCOCCNC(=O)CCCC[C@@H]1SC[C@@H]2NC(=O)N[C@@H]21)[C@@H](C)CC)[C@@H](C)CC)[C@@H](C)CC)C(C)C)C(=O)N[C@@H](Cc1ccc(O)cc1)C(=O)N[C@@H](CCC(=O)O)C(=O)N[C@@H](Cc1ccccc1)C(=O)N[C@@H](CCSC)C(=O)N[C@@H](CCCCN)C(=O)N[C@@H](CCCCN)C(=O)NCC(=O)N[C@@H](CC(=O)O)C(=O)N[C@@H](CCC(=O)O)C(=O)N[C@@H](CCCNC(=N)N)C(=O)N[C@@H](CC(C)C)C(=O)N[C@@H](CC(C)C)C(=O)N[C@@H](CCC(=O)O)C(=O)N[C@@H](CCC(=O)O)C(=O)N[C@@H](C)C(=O)N[C@@H](CCC(=O)O)C(=O)N[C@@H](CCCNC(=N)N)C(=O)N[C@@H](CC(C)C)C(=O)N[C@@H](CC(C)C)C(=O)N[C@@H](CCC(=O)O)C(=O)N[C@@H](CCC(=O)O)C(=O)N[C@H](C(=O)N[C@@H](CCC(=O)O)C(=O)N[C@@H](CCCNC(=N)N)C(N)=O)C(C)C [Compound 187]	–	–	0.07 nM	0.37 nM

Reference: US20260306644A1, “ANTIBODY RECRUITING MOLECULES FOR THE TREATMENT OF CORONAVIRUS DISEASE-19” (priority 2023, published 2026)
